Tests used:
Experiment in all cases: DSF 100 kinase selectivity screen;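 also: compound tested at 20 µM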
Type in all cases: binding
[1] = biological target: T1, ~100 representative kinases (Homo sapiens, UniProt Q92630); details: Protein DYRK2; average of three replicates
T1 construct: Recombinant protein kinase domains with a concentration of 2 μM
T1 sequence (Q92630 1-601): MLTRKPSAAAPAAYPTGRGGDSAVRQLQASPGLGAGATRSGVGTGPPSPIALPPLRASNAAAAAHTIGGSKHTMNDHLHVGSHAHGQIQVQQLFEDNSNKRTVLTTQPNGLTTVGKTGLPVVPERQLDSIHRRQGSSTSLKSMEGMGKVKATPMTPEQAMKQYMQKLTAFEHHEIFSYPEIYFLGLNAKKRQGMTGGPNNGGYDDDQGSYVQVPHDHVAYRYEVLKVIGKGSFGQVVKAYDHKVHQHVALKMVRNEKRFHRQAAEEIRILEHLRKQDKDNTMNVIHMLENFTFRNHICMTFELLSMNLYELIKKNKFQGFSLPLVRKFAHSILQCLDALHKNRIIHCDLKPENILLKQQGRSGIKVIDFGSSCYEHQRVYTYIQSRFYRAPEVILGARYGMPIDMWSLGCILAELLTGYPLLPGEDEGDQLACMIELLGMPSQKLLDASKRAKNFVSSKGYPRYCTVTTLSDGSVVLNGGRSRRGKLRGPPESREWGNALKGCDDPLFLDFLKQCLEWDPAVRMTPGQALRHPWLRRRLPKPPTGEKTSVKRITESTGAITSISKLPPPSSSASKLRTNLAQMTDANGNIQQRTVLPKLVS
Summary of the method: (§1)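 Each kinase domain, at 2 μM, is mixed with 20 μM test compound and SYPRO Orange in Hepes (20 mM, pH 7.5) with 500 mM NaCl. Temperature is then raised at 3°C/min and fluorescence-monitored unfolding yields the melting temperature change, ΔTm in degrees Celsius.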

[2] = biological target: T2, ~100 representative kinases (Homo sapiens, UniProt Q96PY6); details: protein NEK1; average of three replicates
T2 construct: Recombinant protein kinase domains with a concentration of 2 μM
T2 sequence (Q96PY6 1-1258): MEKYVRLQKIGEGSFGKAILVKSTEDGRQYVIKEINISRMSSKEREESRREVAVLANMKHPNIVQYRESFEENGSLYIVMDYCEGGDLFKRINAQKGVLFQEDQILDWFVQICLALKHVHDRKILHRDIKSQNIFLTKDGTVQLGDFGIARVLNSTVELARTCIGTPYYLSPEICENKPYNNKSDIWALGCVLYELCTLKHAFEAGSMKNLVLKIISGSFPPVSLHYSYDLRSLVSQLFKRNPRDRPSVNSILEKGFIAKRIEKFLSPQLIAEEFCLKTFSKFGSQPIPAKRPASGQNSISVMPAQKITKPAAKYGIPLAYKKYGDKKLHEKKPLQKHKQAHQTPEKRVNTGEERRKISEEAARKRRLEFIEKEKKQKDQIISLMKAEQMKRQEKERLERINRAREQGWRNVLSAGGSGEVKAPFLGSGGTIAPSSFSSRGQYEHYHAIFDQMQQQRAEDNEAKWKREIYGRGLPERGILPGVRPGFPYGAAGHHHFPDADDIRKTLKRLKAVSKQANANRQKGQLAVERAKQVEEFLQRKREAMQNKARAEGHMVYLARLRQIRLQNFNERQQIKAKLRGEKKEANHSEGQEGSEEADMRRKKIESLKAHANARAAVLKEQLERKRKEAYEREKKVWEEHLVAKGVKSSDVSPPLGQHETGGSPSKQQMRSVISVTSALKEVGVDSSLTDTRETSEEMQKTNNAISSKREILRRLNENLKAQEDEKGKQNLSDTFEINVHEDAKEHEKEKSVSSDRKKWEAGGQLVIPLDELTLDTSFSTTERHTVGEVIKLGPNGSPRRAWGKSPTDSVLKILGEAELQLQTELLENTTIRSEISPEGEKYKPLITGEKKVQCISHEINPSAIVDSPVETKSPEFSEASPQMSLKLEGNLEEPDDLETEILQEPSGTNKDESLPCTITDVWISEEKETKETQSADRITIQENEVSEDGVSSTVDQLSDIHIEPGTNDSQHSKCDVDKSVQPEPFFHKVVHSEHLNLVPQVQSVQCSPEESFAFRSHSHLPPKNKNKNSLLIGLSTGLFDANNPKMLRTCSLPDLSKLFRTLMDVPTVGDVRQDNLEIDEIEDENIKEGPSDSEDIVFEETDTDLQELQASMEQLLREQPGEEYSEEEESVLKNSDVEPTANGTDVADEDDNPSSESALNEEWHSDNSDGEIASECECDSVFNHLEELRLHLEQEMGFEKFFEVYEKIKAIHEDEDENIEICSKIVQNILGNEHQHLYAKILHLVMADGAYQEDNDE
Summary of the method: as §1

[3] = biological target: T3, ~100 representative kinases (Homo sapiens, UniProt P49841); details: protein GSK3B; average of three replicates
T3 construct: Recombinant protein kinase domains with a concentration of 2 μM
T3 sequence (P49841 whole entry, the tested form may be a part): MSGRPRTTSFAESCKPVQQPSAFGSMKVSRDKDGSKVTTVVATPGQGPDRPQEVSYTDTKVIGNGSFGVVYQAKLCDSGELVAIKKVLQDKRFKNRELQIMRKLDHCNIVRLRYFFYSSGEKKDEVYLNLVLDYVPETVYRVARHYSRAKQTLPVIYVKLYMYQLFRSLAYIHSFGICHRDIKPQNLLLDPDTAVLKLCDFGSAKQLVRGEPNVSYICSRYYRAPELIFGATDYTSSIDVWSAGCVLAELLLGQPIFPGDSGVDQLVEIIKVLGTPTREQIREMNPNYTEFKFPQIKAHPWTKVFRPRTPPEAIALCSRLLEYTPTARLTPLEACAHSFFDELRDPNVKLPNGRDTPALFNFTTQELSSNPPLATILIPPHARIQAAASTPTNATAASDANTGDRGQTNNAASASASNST
Summary of the method: as §1

[4] = biological target: T4, ~100 representative kinases (Homo sapiens, UniProt P68400); details: Protein CK2A1; average of three replicates
T4 construct: Recombinant protein kinase domains with a concentration of 2 μM
T4 sequence (P68400 whole entry, the tested form may be a part): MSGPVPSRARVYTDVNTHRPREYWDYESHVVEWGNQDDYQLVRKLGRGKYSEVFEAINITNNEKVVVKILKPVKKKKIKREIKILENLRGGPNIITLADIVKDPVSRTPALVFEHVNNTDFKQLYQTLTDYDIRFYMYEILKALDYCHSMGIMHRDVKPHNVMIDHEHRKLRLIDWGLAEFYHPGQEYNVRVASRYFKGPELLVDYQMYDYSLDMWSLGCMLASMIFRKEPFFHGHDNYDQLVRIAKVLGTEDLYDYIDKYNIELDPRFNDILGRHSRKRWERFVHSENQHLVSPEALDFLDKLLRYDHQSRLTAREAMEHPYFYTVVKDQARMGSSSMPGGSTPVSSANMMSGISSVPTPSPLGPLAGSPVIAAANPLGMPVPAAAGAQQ
Summary of the method: as §1

[5] = biological target: T5, ~100 representative kinases (Homo sapiens, UniProt O94768); details: Protein STK17B; DSF; average of three replicates
T5 construct: Recombinant protein kinase domains with a concentration of 2 μM
T5 sequence (O94768 1-372): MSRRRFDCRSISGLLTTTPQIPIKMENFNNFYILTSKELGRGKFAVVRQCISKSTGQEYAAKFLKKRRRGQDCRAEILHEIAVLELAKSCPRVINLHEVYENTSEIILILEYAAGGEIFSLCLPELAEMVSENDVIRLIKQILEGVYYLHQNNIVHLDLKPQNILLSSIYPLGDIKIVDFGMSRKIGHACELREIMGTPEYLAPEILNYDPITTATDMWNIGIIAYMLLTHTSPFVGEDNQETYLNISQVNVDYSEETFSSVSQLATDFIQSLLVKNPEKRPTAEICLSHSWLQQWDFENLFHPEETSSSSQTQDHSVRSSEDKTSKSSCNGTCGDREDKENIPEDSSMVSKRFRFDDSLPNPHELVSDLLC
Summary of the method: as §1

| dTm [1] | dTm [2] | dTm [3] | dTm [4] | dTm [5] | Compound |
| --- | --- | --- | --- | --- | --- |
| 6.23 K | 0.23 K | 4.34 K | 1.79 K | 4.70 K | Cc1ccc(NC(=O)C2(C(=O)Nc3cccc(-c4c[nH]c5ncnc(N6CCOCC6)c45)c3)CC2)cc1 [Compound 14] |
| 5.04 K | -0.00237 K | 3.83 K | 0.12 K | 0.00 K | Cc1cc(NC(=O)C2(C(=O)Nc3ccc(F)cc3)CC2)cc(-c2c[nH]c3ncnc(N4CCOCC4)c23)c1 [Compound 6] |
| 3.64 K | -1.82 K | 3.16 K | -1.92 K | 0.00 K | O=C(Nc1cc(F)cc(Br)c1)C1(C(=O)Nc2cccc(-c3c[nH]c4ncnc(N5CCOCC5)c34)c2)CC1 [Compound 27] |
| 3.09 K | 0.34 K | 2.09 K | 1.00 K | 2.09 K | COc1ccc(NC(=O)C2(C(=O)Nc3cccc(-c4c[nH]c5ncnc(N6CCOCC6)c45)c3)CC2)cc1 [Compound 16] |
| 3.48 K | -0.84 K | – | 0.59 K | -0.13 K | Cc1ccc(-n2nc(C(C)(C)C)cc2NC(=O)Nc2cccc(-c3c[nH]c4nc(Cl)nc(N5CCOCC5)c34)c2)cc1 [Compound 30] |
| 9.27 K | 0.54 K | 7.55 K | 0.00 K | 8.61 K | O=C(Nc1ccc(Cl)cc1)C1(C(=O)Nc2cccc(-c3c[nH]c4ncnc(N5CCOCC5)c34)c2)CC1 [Compound 13] |
| 4.85 K | 0.68 K | 3.70 K | 1.87 K | 1.02 K | CCNc1nc(Nc2cc(F)c(C(=O)N3CCOCC3)cc2OC)ncc1C(F)(F)F [GNE-7915] |
| 1.96 K | -0.14 K | 4.64 K | 0.65 K | 2.37 K | Cc1cc(F)ccc1NC(=O)C1(C(=O)Nc2cccc(-c3c[nH]c4ncnc(N5CCOCC5)c34)c2)CC1 [Compound 24] |
| 7.92 K | -0.21 K | 6.47 K | 0.00 K | 6.81 K | O=C(Nc1ccc(F)cc1)C1(C(=O)Nc2cccc(-c3c[nH]c4ncnc(N5CCOCC5)c34)c2)CC1 [Compound 2] |
| 8.53 K | -0.0539 K | 8.20 K | 1.43 K | 8.47 K | COc1cc(NC(=O)C2(C(=O)Nc3cccc(-c4c[nH]c5ncnc(N6CCOCC6)c45)c3)CC2)ccc1F [Compound 21] |
| 5.80 K | -1.56 K | 6.13 K | -1.17 K | 0.00 K | CC(C)(C)c1cccc(NC(=O)C2(C(=O)Nc3cccc(-c4c[nH]c5ncnc(N6CCOCC6)c45)c3)CC2)c1 [Compound 22] |
| 9.71 K | -1.22 K | – | 0.69 K | 6.55 K | Cc1ccc(-n2nc(C(C)(C)C)cc2NC(=O)Nc2cccc(-c3c[nH]c4ncnc(N5CCOCC5)c34)c2)cc1 [Compound 29] |
| 6.24 K | -0.47 K | 5.10 K | 1.35 K | 6.49 K | O=C(Nc1cccc(-c2c[nH]c3ncnc(N4CCOCC4)c23)c1)c1cccn(-c2ccc(F)cc2)c1=O [Compound 4] |
| 2.68 K | -6.30 K | 1.43 K | -3.68 K | 0.00 K | O=C(Nc1cccc(-c2c[nH]c3ncnc(N4CCOCC4)c23)c1)C1(C(=O)Nc2cc(Br)c(F)cc2F)CC1 [Compound 25] |
| 4.76 K | 0.19 K | 5.12 K | 2.19 K | 6.64 K | CCc1ccc(NC(=O)C2(C(=O)Nc3cccc(-c4c[nH]c5ncnc(N6CCOCC6)c45)c3)CC2)cc1 [Compound 15] |
| 6.61 K | -1.20 K | – | 0.26 K | 2.85 K | CC(=O)N1CCN(c2nc(Cl)nc3[nH]cc(-c4cccc(NC(=O)Nc5cc(C(C)(C)C)nn5-c5ccc(C)cc5)c4)c23)CC1 [Compound 31] |
| 4.70 K | -0.27 K | 7.56 K | -1.70 K | 0.00 K | O=C(Nc1cccc(-c2c[nH]c3ncnc(N4CCOCC4)c23)c1)C1(C(=O)Nc2ccc(F)c(Br)c2F)CC1 [Compound 26] |
| 1.57 K | 0.73 K | – | 0.51 K | 9.71 K | COc1cc(S(C)(=O)=O)ccc1Nc1nc(N(C)C)c2c(Cl)c[nH]c2n1 [Compound 37] |
| 5.31 K | 0.22 K | – | 2.03 K | 10.98 K | COc1cc(C(=O)N2CCOCC2)c(F)cc1Nc1nc(N(C)C)c2c(Cl)c[nH]c2n1 [Compound 36] |

| Compound | dTm [1] | dTm [2] | dTm [3] | dTm [4] | dTm [5] |
| --- | --- | --- | --- | --- | --- |
| CCSc1nc(NC)c2c(-c3cccc(NC(=O)Nc4cc(C(C)(C)C)nn4-c4ccc(C)cc4)c3)c[nH]c2n1 [Compound 32] | 6.49 K | -1.34 K | -0.49 K | 0.23 K | 6.20 K |
| CNC(=O)c1cc(Oc2ccc(NC(=O)Nc3cc(C(C)(C)C)nn3-c3ccc4ncccc4c3)c(F)c2)ccn1 [Rebastinib, reference compound] | 6.14 K | 2.10 K | 11.89 K | – | 6.81 K |
| COc1cc2c(Oc3ccc(NC(=O)C4(C(=O)Nc5ccc(F)cc5)CC4)cc3F)ccnc2cc1OCCCN1CCOCC1 [Foretinib, reference compound] | 4.19 K | 0.60 K | 3.46 K | 0.00 K | 3.63 K |
| Cc1ccc(C(=O)Nc2ccc(CN3CCN(C)CC3)c(C(F)(F)F)c2)cc1C#Cc1cnc2cccnn12 [Ponatinib, reference compound] | – | 0.42 K | – | – | -1.68 K |

— article PMC12136037, “Type II kinase inhibitors that target Parkinson’s disease–associated LRRK2” (Science Advances, 2025)
